We go through three compounds from ChEMBL document CHEMBL5634168, “The discovery of an anti-inflammatory monoterpenoid, neoroseoside from the Zea mays” (2024).

The subject of assay [1] is RAW264.7. The experiment in a line: Antiinflammatory activity in LPS induced mouse RAW264.7 cells assessed as reduction in TNF-alpha production at 100 ug/ml measured after 24 hrs. In kind it is functional. The conditions noted are these: dose 100 µg/ml.
Assay [2] has as its system Streptococcus mutans. The experiment in a line: Antibacterial activity against Streptococcus mutans ATCC 25175 assessed as reduction in bacterial growth at 1.25 to 100 ug/ml by broth microdilution method relative to control. In kind it is functional. Details: scale not given: the % may be the effect or the level left. The conditions noted are these: dose 1.25-100 µg/ml; at 1.25 to 100 µg/mL.

Assay [3] has as its system Streptococcus sobrinus. In words: Antibacterial activity against Streptococcus sobrinus ATCC 33478 assessed as reduction in bacterial growth at 1.25 to 100 ug/ml by broth microdilution method relative to control. Further details: scale not given: the % may be the effect or the level left. In kind it is functional. The conditions noted are these: dose 1.25-100 µg/ml; at 1.25 to 100 µg/mL.

The test system of assay [4] is RAW264.7. In words: Antiinflammatory activity in mouse RAW264.7 cells assessed as inhibition of IL-6 production. In kind it is functional, cell-based. The conditions noted are these: dose <= 100.0 µg/ml.
The subject of assay [5] is RAW264.7. The experiment in a line: Antiinflammatory activity in mouse RAW264.7 cells assessed as inhibition of TNF-alpha production. In kind it is functional, cell-based. Particulars: dose <= 100.0 µg/ml.
In assay [6] the test system is RAW264.7. In words: Antiinflammatory activity in LPS induced mouse RAW264.7 cells assessed as inhibition of IL-6 production at 100 ug/ml measured after 24 hrs. In kind it is functional. The conditions noted are these: dose 100 µg/ml.
In assay [7] the test system is Streptococcus mutans. The experiment in a line: Antibacterial activity against Streptococcus mutans ATCC 25175 assessed as reduction in bacterial growth at 1.25 to 100 ug/ml by broth microdilution method. In kind it is functional, organism-based. The conditions noted are these: dose 1.25-100 µg/ml.
Assay [8] deals with Streptococcus sobrinus. The experiment in a line: Antibacterial activity against Streptococcus sobrinus ATCC 33478 assessed as reduction in bacterial growth at 1.25 to 100 ug/ml by broth microdilution method. In kind it is functional, organism-based. The conditions noted are these: dose 1.25-100 µg/ml.

Structures are written as SMILES. Active and inactive are the calls of the source. The rule behind the calls is not given here.

As for `C[C@H]1O[C@@H](c2c(O[C@@H]3O[C@H](CO)[C@@H](O)[C@H](O)[C@H]3O)cc3oc(-c4ccc(O)c(O)c4)cc(=O)c3c2O)C[C@H](O)[C@H]1O` [FAROBIN A], the Activity in assay [1] is 9606 pg/mL; in assay [2] it was 28%; in assay [3], 26%; in assay [4], “Dose-Dependent Effect”; in assay [5], “Dose-Dependent Effect”; in assay [6], 1051.8 pg/mL.
On to `C[C@@H]1O[C@@H](O[C@H]2[C@@H](O)[C@H](O)[C@@H](C)O[C@H]2c2c(O)cc3oc(-c4ccc(O)c(O)c4)cc(=O)c3c2O)[C@@H](O)[C@H](O)[C@H]1O`, for which the Activity in assay [1] was 7473.5 pg/mL; in assay [2] it was 24%; in assay [3], 26%; in assay [4], “Dose-Dependent Effect”; in assay [5], “Dose-Dependent Effect”; in assay [6] it was 766.6 pg/mL.
For `C[C@@H](/C=C/[C@@]1(O)C(C(=O)O)=CC(=O)CC1(C)C)O[C@@H]1O[C@H](CO)[C@@H](O)[C@H](O)[C@H]1O`, the Activity was 9806.7 pg/mL in assay [1], “Dose-Dependent Effect” in assay [4], “Dose-Dependent Effect” in assay [5] and 1570.7 pg/mL in assay [6]. For the same compound, the outcome in assay [7] and in assay [8] was inactive.
